# Data reported in patent publication US20180235234A1, “COMPOSITIONS COMPRISING A BIOLOGICAL CONTROL AGENT AND AN INSECTICIDE” (priority 2012, published 2018).
# Tests used:
# Format in all cases: in vivo
# Spodoptera frugiperda [1] = test: Spodoptera frugiperda spray test, cotton leaves; conditions: mortality
# Protocol: (§1) Spodoptera frugiperda—Spray Test
# To produce a suitable preparation of active compound, 1 part by weight of active compound was mixed with the stated amount of solvent and was diluted with water, containing an emulsifier concentration of 1000 ppm, to the desired concentration. To produce a suitable preparation of a spore suspension the spores were diluted with emulsifier-containing water to the desired concentration. Further test concentrations were prepared by dilution with emulsifier-containing water. Ammonium salt and/or penetration enhancer in a dosage of 1000 ppm were added if necessary.
# Cotton leaves (Gossypium hirsutum) were treated by being sprayed with the preparation of the active compound of the desired concentration and were infested with caterpillars of the fall army worm (Spodoptera frugiperda).
# After the specified period of time % mortality was determined. 100% means all the caterpillars were killed, and 0% means none of the caterpillars were killed.
# Myzus persicae = Myzus persicae spray test (MYZUPE), Chinese cabbage leaf disks; conditions: mortality
# Protocol: (§2) For all examples the efficiencies of the compositions comprising at least one BCA and at least one specific insecticide has been determined by the “Colby-formula”. The expected efficacy of a given combination of two compounds is calculated as follows (see Colby, S. R., “Calculating Synergistic and antagonistic Responses of Herbicide Combinations”, Weeds 15, pp. 20-22, 1967): If • X is the efficacy expressed in % mortality of the untreated control for test compound A at a concentration of m ppm respectively m g/ha, • Y is the efficacy expressed in % mortality of the untreated control for test compound B at a concentration of n ppm respectively n g/ha, • E is the efficacy expressed in % mortality of the untreated control using the mixture of A and B at m and n ppm respectively m and n g /ha, then
# (§3) If the observed insecticidal efficacy of the combination is higher than the one calculated as “E”, then the combination of the two compounds is more than additive, i.e., there is a synergistic effect.
# Myzus persicae—Spray Test (MYZUPE)
# (§4) To produce a suitable preparation of active compound, 1 part by weight of active compound is mixed with the stated amount of solvent and emulsifier, and the concentrate is diluted with emulsifier-containing water to the desired concentration. To produce a suitable preparation of a spore suspension the spores are diluted with emulsifier-containing water to the desired concentration.
# Chinese cabbage (Brassica pekinensis) leaf—disks infected with all instars of the green peach aphid (Myzus persicae), are sprayed with a preparation of the active ingredient of the desired concentration.
# After the specified period of time, mortality in % is determined. 100% means all aphids have been killed; 0% means none of the aphids have been killed. The mortality values determined thus are recalculated using the Colby-formula (see above).
# Aphis gossypii = Aphis gossypii spray test, cotton leaves; conditions: 2 ppm; mortality
# Protocol: as §2, §3
# Aphis gossypii—Spray Test […]
# After the specified period of time, the mortality in % is determined. […] The mortality values determined thus are recalculated using the Colby-formula (see above).
# Spodoptera frugiperda [2] = test: Spodoptera frugiperda spray test, maize leaf sections; conditions: mortality
# Protocol: as §2, §3, §1
# as §4, with “preparation of the active compound,” for “preparation of active compound,”
# Maize (Zea mais) leaf sections are sprayed with a preparation of the active ingredient of the desired concentration. Once dry, the leaf sections are infested with fall armyworm larvae (Spodoptera frugiperda).
# After the specified period of time, mortality in % is determined. 100% means all caterpillars have been killed and 0% means none of the caterpillars have been killed. The mortality values determined thus are recalculated using the Colby-formula (see above).
# Phaedon cochleariae = Phaedon cochleariae spray test, Chinese cabbage leaf disks; conditions: 0.16 g ai/ha; mortality
# Protocol: as §2, §3
# Phaedon cochleariae—Spray Test […]
# After the specified period of time, mortality in % is determined. […] The mortality values determined thus are recalculated using the Colby-formula (see above).
smiles,measurement,setting,value
Cc1c(COC(=O)[C@@H]2[C@H](/C=C(\Cl)C(F)(F)F)C2(C)C)cccc1-c1ccccc1 (racemic) [Bifenthrin],Efficacy in % after 3 days,Spodoptera frugiperda [1]; 0.5 ppm,0%
same,Efficacy in % after 6 days,Spodoptera frugiperda [1]; 0.5 ppm,20%
same,Efficacy in % after 2 days,Spodoptera frugiperda [1]; 2 ppm,20%
same,Efficacy in % after 2 days,Spodoptera frugiperda [1]; 8 ppm,60%
"Cc1c(F)c(F)c(COC(=O)[C@@H]2[C@H](/C=C(\Cl)C(F)(F)F)C2(C)C)c(F)c1F (racemic) [Tefluthrin (I134), Tefluthrin]",Efficacy in % after 6 d,Myzus persicae; 2 g/ha,0%
same,Efficacy in % after 1 d,Aphis gossypii,15%
same,Efficacy in % after 6 d,Spodoptera frugiperda [2]; 0.4 g ai/ha,17%
same,Efficacy in % after 6 d,Spodoptera frugiperda [2]; 4 g ai/ha,50%
same,Efficacy in % after 2 d,Spodoptera frugiperda [2]; 10 g ai/ha,0%
"CC1(C)[C@H](C(=O)O[C@H](C#N)c2cccc(Oc3ccccc3)c2)[C@@H]1C=C(Br)Br [Deltamethrin (I116), Deltamethrin]",Efficacy in % after 6 d,Myzus persicae; 0.032 g/ha,0%
"CC1(C)C(C=C(Cl)Cl)C1C(=O)OC(C#N)c1ccc(F)c(Oc2ccccc2)c1 (stereo not drawn) [ß-Cyfluthrin (I106), beta-Cyfluthrin]",Efficacy in % after 1 d,Myzus persicae; 0.16 g/ha,0%
same,Efficacy in % after 6 d,Myzus persicae; 0.16 g/ha,0%
same,Efficacy in % after 6 d,Myzus persicae; 2 g/ha,0%
same,Efficacy in % after 6 d,Spodoptera frugiperda [2]; 0.16 g ai/ha,0%
same,Efficacy in % after 6 d,Spodoptera frugiperda [2]; 0.4 g ai/ha,33%
same,Efficacy in % after 6 d,Phaedon cochleariae,0%
